Our source for the IC50 values is US20080004253A1, “Thiazolopyrimidine modulators of TRPV1” (priority 2006, published 2008).

The target of assay [1] is T1, human TRPV1 (Homo sapiens, UniProt Q8NER1).
T1 construct: expressed in transfected cells; host or cells: HEK293 (hTRPV1/HEK293), zeocin selection
As to the kind of experiment: Functional assay: block of capsaicin-induced Ca2+ influx, human assay (hTRPV1/HEK293, FLIPR). The class given is cell-based. Particulars: hTRPV1/HEK293 cells, 150 nM capsaicin challenge, Fluo-3 fluorescence; mean; > value = solubility limit in assay medium. Summed up: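 HEK293 cells stably expressing human TRPV1, fluo3-loaded, preincubated 30 min with compound (serial 3-fold dilutions from 10 μM, duplicate) in 20 μM Ca2+ buffer. Capsaicin response taken as fluo3 fluorescence change before vs 100 s after agonist; IC50 by non-linear regression, mean values; free base or TFA salt.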

Assay [2] addresses T2, rat TRPV1 (Rattus norvegicus, UniProt O35433).
T2 construct: expressed in transfected cells; host or cells: HEK293 (rTRPV1/HEK293), geneticin selection
The assay is described as follows: Functional assay: block of capsaicin-induced Ca2+ influx, rat assay (rTRPV1/HEK293, FLIPR). The class given is cell-based. The note with it: rTRPV1/HEK293 cells, capsaicin challenge, Fluo-3 fluorescence; mean; > value = solubility limit in assay medium. The gist of the method:
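HEK293 cells expressing rat TRPV1, loaded with fluo3 and preincubated 30 min with compound in 20 μM Ca2+ buffer before capsaicin challenge. Block read as fluo3 fluorescence change over 100 s after agonist, 3-fold series from 10 μM in duplicate. IC50 by non-linear regression, mean values.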

T2 sequence (O35433 whole entry): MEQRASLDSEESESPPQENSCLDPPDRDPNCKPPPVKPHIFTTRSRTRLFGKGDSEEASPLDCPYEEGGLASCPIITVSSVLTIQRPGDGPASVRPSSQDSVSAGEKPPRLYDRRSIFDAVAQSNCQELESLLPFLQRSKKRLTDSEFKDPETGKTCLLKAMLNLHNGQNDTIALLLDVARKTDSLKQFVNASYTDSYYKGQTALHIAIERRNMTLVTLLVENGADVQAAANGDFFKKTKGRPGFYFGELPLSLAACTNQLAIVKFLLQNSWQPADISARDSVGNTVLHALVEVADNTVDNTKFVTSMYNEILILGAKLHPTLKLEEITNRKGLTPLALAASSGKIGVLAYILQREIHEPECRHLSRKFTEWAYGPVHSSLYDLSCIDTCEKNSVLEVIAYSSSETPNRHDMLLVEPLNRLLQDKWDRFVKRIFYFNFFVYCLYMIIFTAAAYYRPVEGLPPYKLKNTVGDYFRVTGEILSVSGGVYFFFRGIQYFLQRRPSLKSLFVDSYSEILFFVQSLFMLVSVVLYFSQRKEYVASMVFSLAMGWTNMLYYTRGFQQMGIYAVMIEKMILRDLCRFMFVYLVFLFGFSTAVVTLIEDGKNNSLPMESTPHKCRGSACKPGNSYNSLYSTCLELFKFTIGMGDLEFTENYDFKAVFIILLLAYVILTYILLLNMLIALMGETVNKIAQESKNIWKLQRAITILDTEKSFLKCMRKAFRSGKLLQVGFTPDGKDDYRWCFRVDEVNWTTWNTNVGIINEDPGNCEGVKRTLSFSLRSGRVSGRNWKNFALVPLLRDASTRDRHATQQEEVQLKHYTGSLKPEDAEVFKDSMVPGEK
T1 sequence (Q8NER1 whole entry): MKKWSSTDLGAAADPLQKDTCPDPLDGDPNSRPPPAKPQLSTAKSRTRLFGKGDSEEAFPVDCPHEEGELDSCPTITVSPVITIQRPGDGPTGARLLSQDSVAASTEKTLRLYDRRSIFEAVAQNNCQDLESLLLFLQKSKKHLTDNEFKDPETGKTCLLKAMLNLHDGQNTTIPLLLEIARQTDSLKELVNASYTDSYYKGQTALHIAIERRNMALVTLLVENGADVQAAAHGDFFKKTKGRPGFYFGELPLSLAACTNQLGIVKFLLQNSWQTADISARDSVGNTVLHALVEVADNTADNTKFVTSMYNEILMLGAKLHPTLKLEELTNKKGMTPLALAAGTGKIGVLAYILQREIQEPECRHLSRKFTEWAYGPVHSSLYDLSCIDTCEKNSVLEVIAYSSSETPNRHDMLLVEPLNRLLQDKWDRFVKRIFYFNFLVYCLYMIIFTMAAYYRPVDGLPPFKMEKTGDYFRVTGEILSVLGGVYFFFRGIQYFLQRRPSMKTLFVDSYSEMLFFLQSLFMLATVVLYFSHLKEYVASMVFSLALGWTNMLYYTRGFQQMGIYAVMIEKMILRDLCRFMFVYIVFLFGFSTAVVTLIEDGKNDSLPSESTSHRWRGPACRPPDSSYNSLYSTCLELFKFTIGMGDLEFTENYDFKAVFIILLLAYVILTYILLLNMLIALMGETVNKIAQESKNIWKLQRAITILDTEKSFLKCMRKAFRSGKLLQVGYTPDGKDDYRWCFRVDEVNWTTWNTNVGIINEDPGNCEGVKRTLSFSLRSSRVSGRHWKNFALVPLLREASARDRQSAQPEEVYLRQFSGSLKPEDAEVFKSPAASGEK

A word on the IC50: it is the concentration needed to halve the response being measured. For the molecule `CS(=O)(=O)c1ccccc1Nc1nc2c(Nc3ccc(C(F)(F)F)nc3)ncnc2s1` [Example 199, N^2-(2-Methanesulfonyl-phenyl)-N^7-(6-trifluoromethyl-pyridin-3-yl)-thiazolo[5,4-d]pyrimidine-2,7-diamine], the IC50 in assay [1] was found to be 2150 nM; in assay [2], 1080 nM.

With `CSc1ccc(Nc2nc(C)nc3sc(Nc4c(Cl)cccc4Cl)nc23)cc1` [Example 94, N^2-(2,6-Dichloro-phenyl)-5-methyl-N^7-(4-methylsulfanyl-phenyl)-thiazolo[5,4-d]pyrimidine-2,7-diamine], the half-inhibitory concentration (IC50) in assay [1] was found to be 8 nM; in assay [2] it was 3 nM.

For `FC(F)(F)c1ccc(Nc2ncnc3sc(Nc4c(Cl)cccc4Cl)nc23)cc1` [Example 1, N^2-(2,6-Dichloro-phenyl)-N^7-(4-trifluoromethyl-phenyl)-thiazolo[5,4-d]pyrimidine-2,7-diamine], the IC50 in assay [1] was found to be 12 nM; in assay [2] it was 3 nM.

On to `CC(C)(C)c1ccc(Nc2ncnc3sc(Nc4c(Cl)cccc4Cl)nc23)cc1` [Example 3, N^7-(4-tert-Butyl-phenyl)-N^2-(2,6-dichloro-phenyl)-thiazolo[5,4-d]pyrimidine-2,7-diamine], for which the IC50 amounted to 14 nM in assay [1] and 1 nM in assay [2].

For `Cc1nc(Nc2ccc(S(=O)(=O)C(C)C)cc2)c2nc(Nc3c(C)cccc3C)sc2n1` [Example 102, N^2-(2,6-Dimethyl-phenyl)-5-methyl-N^7-[4-(Propane-2-sulfonyl)-phenyl]-thiazolo[5,4-d]pyrimidine-2,7-diamine], the IC50 in assay [1] turned out to be 18 nM; in assay [2] it was 19 nM.

Take `Cc1nc(Nc2ccc(C(F)(F)F)c(Cl)c2)c2nc(Nc3c(Cl)cccc3Cl)sc2n1` [Example 30, N^7-(3-Chloro-4-trifluoromethyl-phenyl)-N^2-(2,6-dichloro-phenyl)-5-methyl-thiazolo[5,4-d]pyrimidine-2,7-diamine]: the IC50 in assay [1] and in assay [2] was 3 nM throughout.

Regarding `CN(C)c1nc(Nc2ccc(C(F)(F)F)cc2)c2nc(Nc3c(Cl)cccc3Cl)sc2n1` [Example 56, N^2-(2,6-Dichloro-phenyl)-N^5,N^5-dimethyl-N^7-(4-trifluoromethyl-phenyl)-thiazolo[5,4-d]pyrimidine-2,5,7-triamine], the IC50 came out at 32 nM in assay [1] and 44 nM in assay [2].

As to `CC1CCCN1c1nc(Nc2ccc(C(F)(F)F)cc2)c2nc(Nc3c(Cl)cccc3Cl)sc2n1` (racemic) [Example 105, (racemic)-N^2-(2,6-Dichloro-phenyl)-5-(2-methyl-pyrrolidin-1-yl)-N^7-(4-trifluoromethyl-phenyl)-thiazolo[5,4-d]pyrimidine-2,7-diamine], the IC50 in assay [1] amounted to 24 nM; in assay [2], 17 nM.

On to `CC(C)OC(=O)C(C)(C)c1ccc(Nc2ncnc3sc(Nc4c(Cl)cccc4Cl)nc23)cc1` [Example 231, 1-Methylethyl 2-[4-({2-[(2,6-dichlorophenyl)amino][1,3]thiazolo[5,4-d]pyrimidin-7-yl}amino)phenyl]-2-methylpropanoate], for which the IC50 turned out to be 698 nM in assay [1] and 81 nM in assay [2].

As for `Cc1nc(Nc2ccc(S(=O)(=O)N(C)C)cc2)c2nc(Nc3ncccc3C)sc2n1` [Example 212, N,N-Dimethyl-4-[5-methyl-2-(3-methyl-pyridin-2-ylamino)-thiazolo[5,4-d]pyrimidin-7-ylamino]-benzenesulfonamide], the IC50 in assay [1] and in assay [2] was at least 6670 nM throughout.

In the case of `Cc1nc(Nc2ccc(C(=O)N(C)C)cc2)c2nc(Nc3c(Cl)cccc3Cl)sc2n1` [Example 157, 4-[2-(2,6-Dichloro-phenylamino)-5-methyl-thiazolo[5,4-d]pyrimidin-7-ylamino]-N,N-dimethyl-benzamide], the results for the half-inhibitory concentration (IC50) in assay [1] and in assay [2] were 1920 nM and 1210 nM, respectively.

Turning to `COc1ccc(Nc2ncnc3sc(Nc4c(C)cccc4C)nc23)cc1C(F)(F)F` [Example 168, N^2-(2,6-Dimethyl-phenyl)-N^7-(4-methoxy-3-trifluoromethyl-phenyl)-thiazolo[5,4-d]pyrimidine-2,7-diamine], the IC50 in assay [1] and in assay [2] was above 6670 nM throughout.

For `Cc1cccc(C)c1Nc1nc2c(Nc3ccc(S(=O)(=O)N4CCNCC4)cc3)ncnc2s1` [Example 151, N^2-(2,6-Dimethyl-phenyl)-N^7-[4-(Piperazine-1-sulfonyl)-phenyl]-thiazolo[5,4-d]pyrimidine-2,7-diamine], the results for the IC50 in assay [1] and in assay [2] were 1220 nM and 349 nM, respectively.

On to `CS(=O)(=O)c1ccccc1Nc1nc2c(Nc3ccc(C(F)(F)F)cc3)ncnc2s1` [Example 201, N^2-(2-Methanesulfonyl-phenyl)-N^7-(4-trifluoromethyl-phenyl)-thiazolo[5,4-d]pyrimidine-2,7-diamine], for which the IC50 was determined as 257 nM in assay [1] and 244 nM in assay [2].

For `CC(C)C1CCCN1c1nc(Nc2ccc(C(F)(F)F)c(Cl)c2)c2nc(Nc3c(Cl)cccc3Cl)sc2n1` (racemic) [Example 118, (racemic)-N^7-(3-Chloro-4-trifluoromethyl-phenyl)-N^2-(2,6-dichloro-phenyl)-5-(2-isopropyl-pyrrolidin-1-yl)-thiazolo[5,4-d]pyrimidine-2,7-diamine], the IC50 is 56 nM in assay [1] and 18 nM in assay [2].

Take `CS(=O)(=O)c1ccc(Nc2ncnc3sc(Nc4c(Cl)cccc4Cl)nc23)cc1F` [Example 82, N^2-(2,6-Dichloro-phenyl)-N^7-(3-fluoro-4-methanesulfonyl-phenyl)-thiazolo[5,4-d]pyrimidine-2,7-diamine]: the IC50 amounted to 5 nM in assay [1] and 1 nM in assay [2].

On to `Cc1noc(C)c1Nc1nc2c(Nc3ccc(C(C)(C)C#N)cc3)ncnc2s1` [Example 223, 2-[4-({2-[(3,5-Dimethylisoxazol-4-yl)amino][1,3]thiazolo[5,4-d]pyrimidin-7-yl}amino)phenyl]-2-methylpropanenitrile], for which the values for the IC50 in assay [1] and in assay [2] were 169 nM and 95 nM, respectively.

Take `Cc1nc(Nc2ccc(C(F)(F)F)c(Cl)c2)c2nc(Nc3c(C)cccc3C)sc2n1` [Example 247, N^7-(3-Chloro-4-trifluoromethyl-phenyl)-N^2-(2,6-dimethyl-phenyl)-5-methyl-thiazolo[5,4-d]pyrimidine-2,7-diamine]: the concentration for half-maximal inhibition (IC50) in assay [1] was 35 nM; in assay [2], 19 nM.

With `Cc1cc(C(F)(F)F)ccc1Nc1ncnc2sc(Nc3c(C)cccc3C)nc12` [Example 159, N^2-(2,6-Dimethyl-phenyl)-N^7-(2-methyl-4-trifluoromethyl-phenyl)-thiazolo[5,4-d]pyrimidine-2,7-diamine], the 50% inhibitory concentration (IC50) in assay [1] is above 2220 nM; in assay [2], 1460 nM.

In the case of `Cc1cccc(C)c1Nc1nc2c(Nc3ccc(C#N)cc3)ncnc2s1` [Example 31, 4-[2-(2,6-Dimethyl-phenylamino)-thiazolo[5,4-d]pyrimidin-7-ylamino]-benzonitrile], the IC50 in assay [1] came out at 40 nM; in assay [2], 33 nM.

`CS(=O)(=O)c1ccc(Nc2ncnc3sc(Nc4ccccc4Cl)nc23)cc1` [Example 126, N^2-(2-Chloro-phenyl)-N^7-(4-methanesulfonyl-phenyl)-thiazolo[5,4-d]pyrimidine-2,7-diamine]: the half-inhibitory concentration (IC50) in assay [1] came to 129 nM; in assay [2], 30 nM.

`NC(=O)c1cc(Cl)c(Nc2nc3c(Nc4ccc(C(F)(F)F)cc4)ncnc3s2)c(Cl)c1` [Example 235, 3,5-Dichloro-4-[7-(4-trifluoromethyl-phenylamino)-thiazolo[5,4-d]pyrimidin-2-ylamino]-benzamide]: the IC50 is 90 nM in assay [1] and 61 nM in assay [2].

Consider `Cc1nc(Nc2ccc(C#N)cc2)c2nc(Nc3c(Cl)cccc3Cl)sc2n1` [Example 96, 4-[2-(2,6-Dichloro-phenylamino)-5-methyl-thiazolo[5,4-d]pyrimidin-7-ylamino]-benzonitrile], for which the figures for the IC50 in assay [1] and in assay [2] were 12 nM and 9 nM, respectively.

On to `Cc1nc(Nc2ccc(S(C)(=O)=O)cc2)c2nc(Nc3c(Cl)cccc3Cl)sc2n1` [Example 78, N^2-(2,6-Dichloro-phenyl)-N^7-(4-methanesulfonyl-phenyl)-5-methyl-thiazolo[5,4-d]pyrimidine-2,7-diamine], for which the results for the IC50 in assay [1] and in assay [2] were 2 nM and 1 nM, respectively.

Turning to `C[C@H]1COCCN1c1nc(Nc2ccc(C(F)(F)F)cc2)c2nc(Nc3c(Cl)cccc3Cl)sc2n1` [Example 192, (3S)-N^2-(2,6-Dichloro-phenyl)-5-(3-methyl-morpholin-4-yl)-N^7-(4-trifluoromethyl-phenyl)-thiazolo[5,4-d]pyrimidine-2,7-diamine], the results for the IC50 in assay [1] and in assay [2] were 63 nM and 19 nM, respectively.

As for `Cc1nc(Nc2ccc3c(c2)N(C)CCC3(C)C)c2nc(Nc3c(Cl)cccc3Cl)sc2n1` [Example 107, N^2-(2,6-Dichloro-phenyl)-5-methyl-N^7-(1,4,4-trimethyl-1,2,3,4-tetrahydro-quinolin-7-yl)-thiazolo[5,4-d]pyrimidine-2,7-diamine], the IC50 stood at 25 nM in assay [1] and 2 nM in assay [2].

On to `FC(F)(F)c1ccc(Nc2ncnc3sc(Nc4ccccc4Cl)nc23)cc1` [Example 16, N^2-(2-Chloro-phenyl)-N^7-(4-trifluoromethyl-phenyl)-thiazolo[5,4-d]pyrimidine-2,7-diamine], for which the IC50 in assay [1] is 92 nM; in assay [2] it was 39 nM.
